Reference: patent publication US20260041683A1, “Compounds with Anti-Acinetobacter Baumannii Activity” (University of Kentucky Research Foundation, priority 2022, published 2026)
≈ marks a conversion by molar mass, not a printed value.

Assays:
[1] = tested on: all 43 strains of A. baumannii (41 CDC strains and 2 ATCC strains); experiment: MIC value statistics for all A. baumannii strains; assay type: cell-based, Acinetobacter baumannii; details: of 43 A. baumannii strains
Method: All bacterial strains listed above were stored at −80° C. All strains were streaked on Mueller-Hinton (MH) plates and allowed to grow at 37° C. overnight. Enough colonies were scraped from the plate and suspended in MH broth with vortexing to reach an attenuance at 600 nm (OD600) of ˜0.5. The resulting culture was diluted 1:1000 and added to the prepared serially doubly diluted compound solutions in 96-well plates. […]. For each row, one well was reserved for sterile control (which consisted of 200 μL of MH medium) and another well was reserved for growth control (which consisted of 100 μL of MH medium seeded with 100 μL of bacterial culture).
Having established that the observed activity is selective to A. baumannii, all synthesized compounds were tested against a panel of antibiotic resistant A. baumannii from the Antimicrobial Resistant (AR) Isolate Bank from the CDC along with strains I and J (Table Si). […]. Based on this statistical analysis, the best compound is 5e followed closely by 3e.

Ab ATCC 19606 (strain I) = experiment: MIC determination (double dilution, Mueller-Hinton broth); assay type: cell-based, Acinetobacter baumannii; details: Acinetobacter baumannii, ATCC19606; Table 1; control strain; read-out: MIC Ab ATCC 19606
Method: All bacterial strains listed above were stored at −80° C. All strains were streaked on Mueller-Hinton (MH) plates and allowed to grow at 37° C. overnight. […] The resulting culture was diluted 1:1000 and added to the prepared serially doubly diluted compound solutions in 96-well plates. For M. smegmatis, a 1:100 dilution of the bacteria was done in MH. All MIC values were determined using 96-well plates with low evaporation seals at least in duplicate. For each row, one well was reserved for sterile control (which consisted of 200 μL of MH medium) and another well was reserved for growth control (which consisted of 100 μL of MH medium seeded with 100 μL of bacterial culture).
(§1) Minimum inhibitory concentrations (MIC) of all compounds from the series were measured in liquid cultures of different Ab strains by a double-dilution method in Mueller-Hinton broth. Initially, the activity of all 46 compounds against Ab ATCC 19606 (a control strain) and Ab ATCC BAA1605 (a multidrug-resistant strain) (Table 1; data shown for 27 representative compounds) was measured.

[2] = tested on: Ab ATCC BAA1605 (strain J, multidrug-resistant); experiment: MIC determination; assay type: cell-based; details: Acinetobacter baumannii; Table 1; multidrug-resistant strain; read-out: MIC Ab ATCC BAA 1605
Method: All bacterial strains listed above were stored at −80° C. All strains were streaked on Mueller-Hinton (MH) plates and allowed to grow at 37° C. overnight. Enough colonies were scraped from the plate and suspended in MH broth with vortexing to reach an attenuance at 600 nm (OD600) of ˜0.5. The resulting culture was diluted 1:1000 and added to the prepared serially doubly diluted compound solutions in 96-well plates. For M. smegmatis, a 1:100 dilution of the bacteria was done in MH. All MIC values were determined using 96-well plates with low evaporation seals at least in duplicate. For each row, one well was reserved for sterile control (which consisted of 200 μL of MH medium) and another well was reserved for growth control (which consisted of 100 μL of MH medium seeded with 100 μL of bacterial culture).
as §1

Compound | number of compound/strain combinations with MIC value >64 μg/mL [1] | MIC (Ab ATCC 19606 (strain I)) [µg/mL] | MIC [2] [µg/mL] | number of compound/strain combinations with MIC value 0.25 μg/mL [1] | number of compound/strain combinations with MIC value 0.5 μg/mL [1] | number of compound/strain combinations with MIC value 1 μg/mL [1] | number of compound/strain combinations with MIC value 2 μg/mL [1] | number of compound/strain combinations with MIC value ≤0.125 μg/mL [1]
CCOC(=O)CNNC(=O)c1ccc(F)cc1F [Compound 1g] | 43 | – | – | – | – | – | – | –
CCOC(=O)CNNC(=O)c1ccccn1 [Compound 2g] | 43 | – | – | – | – | – | – | –
O=C(NNc1cccc(F)c1)c1cccc(Br)n1 [Compound 6a] | – | 0.5 (≈ 1.61 µM) | 0.5 (≈ 1.61 µM) | 4 | 16 | 19 | 4 | –
O=C(NNC1CCCCC1)c1cccnc1 [Compound 11h] | 43 | > 64 | > 64 | – | – | – | – | –
O=C(NNc1cccc(F)c1)c1nc(F)ccc1F [Compound 8a] | – | – | – | 11 | 12 | 18 | – | 2
CCOC(=O)CNNC(=O)c1ccc(F)cn1 [Compound 3g] | 43 | > 64 | > 64 | – | – | – | – | –
CCOC(=O)CNNC(=O)c1cccc(F)n1 [Compound 5g] | 43 | > 64 | > 64 | – | – | – | – | –
O=C(NNc1ccc(Cl)cc1)c1ncc(F)cc1F [Compound 7e] | – | 0.125 (≈ 0.441 µM) | 0.125 (≈ 0.441 µM) | 28 | 7 | – | – | 8
O=C(NNc1ccc(Cl)cc1)c1cnc2ccccc2n1 [Compound 13e] | – | 0.5 (≈ 1.67 µM) | 0.25 (≈ 0.837 µM) | 9 | 22 | 12 | – | –
O=C(NNc1ccc(Cl)cc1)c1cccnc1 [Compound 11e] | – | – | – | 15 | 19 | 4 | – | 5
O=C(NNC1CCCCC1)c1ccc(F)cc1F [Compound 1h] | 43 | – | – | – | – | – | – | –
O=C(NNc1cccc(F)c1)c1cnc2ccccc2n1 [Compound 13a] | – | – | – | 6 | 19 | 15 | 3 | –
O=C(NNc1cccc(F)c1)c1cccnc1 [Compound 11a] | – | 0.25 (≈ 1.08 µM) | 0.5 (≈ 2.16 µM) | 11 | 26 | 4 | – | 2
CCC(=O)NNc1cccc(F)c1 [Compound 16a] | – | – | – | 10 | 15 | 14 | – | 4
O=C(NNc1ccc(Cl)cc1)c1nc(F)ccc1F [Compound 8e] | – | 0.125 (≈ 0.441 µM) | 0.0625 (≈ 0.22 µM) | 34 | 2 | – | – | 7
O=C(NNc1ccc(Cl)cc1)c1cnccn1 [Compound 9e] | – | – | – | 8 | 19 | 15 | – | 1
O=C(NNc1cccc(F)c1)c1ccc(Br)cn1 [Compound 4a] | – | 0.5 (≈ 1.61 µM) | 0.5 (≈ 1.61 µM) | 2 | 8 | 19 | 14 | –
O=C(NNc1cccc(F)c1)c1ccccn1 [Compound 2a] | – | 2 (≈ 8.65 µM) | 0.5 (≈ 2.16 µM) | 10 | 18 | 10 | 3 | 2

More lines, now with the values ahead:

number of compound/strain combinations with MIC value >64 μg/mL [1] | MIC (Ab ATCC 19606 (strain I)) [µg/mL] | MIC [2] [µg/mL] | number of compound/strain combinations with MIC value 0.25 μg/mL [1] | number of compound/strain combinations with MIC value 0.5 μg/mL [1] | number of compound/strain combinations with MIC value 1 μg/mL [1] | number of compound/strain combinations with MIC value 2 μg/mL [1] | number of compound/strain combinations with MIC value ≤0.125 μg/mL [1] | Compound
– | – | – | 21 | 16 | – | – | 6 | O=C(NNc1cccc(F)c1)c1ccco1 [Compound 15a]
– | 0.25 (≈ 0.928 µM) | 0.25 (≈ 0.928 µM) | 13 | 25 | 5 | – | – | O=C(NNc1cccc(F)c1)c1cc2ccccc2[nH]1 [Compound 14a]
– | – | – | 3 | 26 | 9 | 4 | 1 | O=C(NNc1cccc(F)c1)c1ccc(F)cc1F [Compound 1a]
– | – | – | 1 | 8 | 25 | 9 | – | O=C(NNc1cccc(F)c1)c1cccc(F)n1 [Compound 5a]
43 | – | – | – | – | – | – | – | CCOC(=O)CNNC(=O)c1cnccn1 [Compound 9g]
– | 0.25 (≈ 1.09 µM) | 0.5 (≈ 2.17 µM) | 19 | 17 | 1 | – | 6 | O=C(NNc1cccc(F)c1)c1ccccc1 [Compound 10a]
– | – | – | 5 | 19 | 18 | – | 1 | O=C(NNc1cccc(F)c1)c1ncc(F)cc1F [Compound 7a]
43 | – | – | – | – | – | – | – | O=C(NNC1CCCCC1)c1cnccn1 [Compound 9h]
